Data taken from patent US6972294B1, “Compounds, their preparation and use” (Novo Nordisk, A/S, priority 1999, dated 2005).

SMILES: CCOC(=O)C(Cc1ccc(OCC=C(c2ccccc2)c2ccncc2)cc1)OCC (stereo not shown) [Example 29, 2-Ethoxy-3-[4-(3-phenyl-3-pyridin-4-yl-allyloxy)-phenyl]-propionic acid ethyl ester]
- melting point: 84 to 87 °C
